Source: patent US7074789B2, “Kinase inhibitors” (Amgen Inc., priority 1999, dated 2006)

Assays:
Assay type in all cases: biochemical
EGFR = target: T1, EGFR (Homo sapiens, UniProt P00533); assay: Kinase inhibition assay (33P transfer), EGFR; conditions: Table 2, kinase inhibition class; read-out: EGFR-1
T1 construct: Kinases are expressed as either kinase domains or full length constructs; made in house
Summary of the method: (§1)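 Using immobilised substrate copolymers (poly(Glu,Tyr) 4:1; poly(Arg,Ser) 3:1) and [33P]ATP, purified fusion kinases were allowed to react; plates were then rinsed in 0.5% phosphoric acid and counted in a scintillation detector. Half-maximal inhibition of label transfer defines IC50.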

PDGFRB = target: T2, PDGFRB (Homo sapiens, UniProt P09619); assay: Kinase inhibition assay (33P transfer), PDGFRB; conditions: read-out: PDGFRB-1
T2 construct: Kinases are expressed as either kinase domains or full length constructs; made in house

Src = target: T3, Src (Homo sapiens, UniProt P12931); assay: Kinase inhibition assay (33P transfer), Src; conditions: Table 6, Src-1 kinase inhibition class
T3 construct: Kinases are expressed as either kinase domains or full length constructs; made in house
Excerpt: (§2) The inhibitor compounds described herein are screened in the following manner. Kinases suitable for use in the following protocol to determine kinase activity of the compounds described herein include, -but are not limited to: Lck, Lyn, Src, Fyn, Syk, Zap-70, Itk, Tec, Btk, EGFR, ErbB2, Kdr, Flt-1, Flt-3, Tek, c-Met, InsR, and AKT.
(§3) Kinases are expressed as either kinase domains or full length constructs fused to glutathione S-transferase (GST) or polyHistidine tagged fusion proteins in either E. colior Baculovirus-High Five expression systems. They are purified to near homogeneity by affinity chromatography essentially as previously described (Lehr et al., 1996; Gish et al., 1995). In some instances, kinases are co-expressed or mixed with purified or partially purified regulatory polypeptides prior to measurement of activity.
(§4) Kinase activity and inhibition are measured essentially by established protocols (Braunwalder et al., 1996). Briefly, The transfer of ^33PO4 from ATP to the synthetic substrates poly(Glu, Tyr) 4:1 or poly(Arg, Ser) 3:1 attached to the bioactive surface of microtiter plates serves as the basis to evaluate enzyme activity. After an incubation period, the amount of phosphate transferred is measured by first washing the plate with 0.5% phosphoric acid, adding liquid scintillant, and then counting in a liquid scintillation detector. The IC50 is determined by the concentration of compound that causes a 50% reduction in the amount of […] incorporated onto the substrate bound to the plate.

c-Met = target: T4, c-Met (Homo sapiens, UniProt P08581); assay: Kinase inhibition assay (33P transfer), c-Met; conditions: Table 2, kinase inhibition class; read-out: Met-1
T4 construct: Kinases are expressed as either kinase domains or full length constructs; made in house
Summary of the method: as §1

AKT = target: T5, AKT (Homo sapiens, UniProt Q9Y243); assay: Kinase inhibition assay (33P transfer), AKT; conditions: Table 2, kinase inhibition class; read-out: AKT3-1
T5 construct: Kinases are expressed as either kinase domains or full length constructs; made in house
Summary of the method: (§5)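 Recombinant kinase-domain or full-length fusion proteins (GST or His tag) served as enzyme. Substrate poly(Glu,Tyr) 4:1 or poly(Arg,Ser) 3:1 was bound to the plate; transferred 33P was read by liquid scintillation following acid washing.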

Tek = target: T6, Tek (Homo sapiens, UniProt Q02763); assay: Kinase inhibition assay (33P transfer), Tek; conditions: read-out: Tek-1
T6 construct: Kinases are expressed as either kinase domains or full length constructs; made in house
Summary of the method: as §1

Hck-1 = target: T7, Hck-1 (Homo sapiens, UniProt P08631); assay: Kinase inhibition assay (33P transfer), Hck; conditions: Table 6, Hck-1 kinase inhibition class
T7 construct: Kinases are expressed as either kinase domains or full length constructs; made in house

Lck = target: T8, Lck (Homo sapiens, UniProt P06239); assay: Kinase inhibition assay (33P transfer), Lck; conditions: Table 3; read-out: Lck-1
T8 construct: Kinases are expressed as either kinase domains or full length constructs; made in house
Summary of the method: as §5

FGFR1 = target: T9, FGFR1 (Homo sapiens, UniProt P11362); assay: Kinase inhibition assay (33P transfer), FGFR1; conditions: read-out: FGFR1-1
T9 construct: Kinases are expressed as either kinase domains or full length constructs; made in house

Flt-1 = target: T10, Flt-1 (Homo sapiens, UniProt P17948); assay: Kinase inhibition assay (33P transfer), Flt-1
T10 construct: Kinases are expressed as either kinase domains or full length constructs; made in house
Excerpt: as §2, §3, §4

Lyn = target: T11, Lyn (Homo sapiens, UniProt P07948); assay: Kinase inhibition assay (33P transfer), Lyn; conditions: Table 6, Lyn-1 kinase inhibition class
T11 construct: Kinases are expressed as either kinase domains or full length constructs; made in house
Excerpt: as §2, §3, §4

Zap-70 = target: T12, Zap-70 (Homo sapiens, UniProt P43403); assay: Kinase inhibition assay (33P transfer), Zap-70; conditions: Table 3; read-out: Zap-1
T12 construct: Kinases are expressed as either kinase domains or full length constructs; made in house
T12 sequence (P43403 1-619): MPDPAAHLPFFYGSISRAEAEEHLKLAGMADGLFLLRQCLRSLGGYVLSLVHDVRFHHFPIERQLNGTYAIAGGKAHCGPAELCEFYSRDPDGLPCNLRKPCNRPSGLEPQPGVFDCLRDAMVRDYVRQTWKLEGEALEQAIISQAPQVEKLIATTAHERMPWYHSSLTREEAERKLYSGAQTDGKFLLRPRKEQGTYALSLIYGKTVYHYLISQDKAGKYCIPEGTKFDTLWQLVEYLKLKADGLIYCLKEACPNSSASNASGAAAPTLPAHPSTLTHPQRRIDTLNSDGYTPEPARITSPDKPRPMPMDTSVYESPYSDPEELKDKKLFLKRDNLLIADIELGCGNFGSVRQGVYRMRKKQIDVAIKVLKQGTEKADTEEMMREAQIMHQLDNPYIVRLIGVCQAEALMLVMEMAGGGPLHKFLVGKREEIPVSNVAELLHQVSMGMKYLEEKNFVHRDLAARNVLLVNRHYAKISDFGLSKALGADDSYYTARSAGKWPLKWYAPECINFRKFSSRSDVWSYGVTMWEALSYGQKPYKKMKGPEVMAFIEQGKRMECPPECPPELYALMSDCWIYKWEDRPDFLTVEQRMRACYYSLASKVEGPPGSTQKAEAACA
Summary of the method: as §5

Kdr = target: T13, Kdr (Homo sapiens, UniProt P35968); assay: Kinase inhibition assay (33P transfer), Kdr; conditions: Table 3; read-out: KDR-1
T13 construct: Kinases are expressed as either kinase domains or full length constructs; made in house
Summary of the method: as §5

Itk = target: T14, Itk (Homo sapiens, UniProt Q08881); assay: Kinase inhibition assay (33P transfer), Itk; conditions: Table 3; read-out: Itk-1
T14 construct: Kinases are expressed as either kinase domains or full length constructs; made in house
T14 sequence (Q08881 1-620): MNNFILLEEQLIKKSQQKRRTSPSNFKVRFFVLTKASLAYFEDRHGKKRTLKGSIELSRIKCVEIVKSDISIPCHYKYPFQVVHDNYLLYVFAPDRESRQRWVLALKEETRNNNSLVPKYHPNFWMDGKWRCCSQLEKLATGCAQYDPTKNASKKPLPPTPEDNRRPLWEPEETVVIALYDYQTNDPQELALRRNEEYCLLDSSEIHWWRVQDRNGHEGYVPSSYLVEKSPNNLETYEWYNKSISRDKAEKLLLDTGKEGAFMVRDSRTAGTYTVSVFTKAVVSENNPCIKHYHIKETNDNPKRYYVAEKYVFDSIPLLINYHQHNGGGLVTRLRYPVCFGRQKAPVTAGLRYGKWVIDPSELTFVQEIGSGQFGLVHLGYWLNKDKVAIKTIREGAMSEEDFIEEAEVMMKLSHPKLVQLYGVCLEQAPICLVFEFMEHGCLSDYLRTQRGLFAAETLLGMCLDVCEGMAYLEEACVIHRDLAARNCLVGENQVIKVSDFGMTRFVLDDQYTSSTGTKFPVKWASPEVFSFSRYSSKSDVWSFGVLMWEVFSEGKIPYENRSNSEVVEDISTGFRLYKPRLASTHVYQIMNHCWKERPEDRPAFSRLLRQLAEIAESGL
Summary of the method: as §1

Fyn = target: T15, Fyn (Homo sapiens, UniProt P06241); assay: Kinase inhibition assay (33P transfer), Fyn; conditions: read-out: Fyn-1
T15 construct: Kinases are expressed as either kinase domains or full length constructs; made in house
Excerpt: as §2, §3, §4

ErbB4 = target: T16, ErbB4 (Homo sapiens, UniProt Q15303); assay: Kinase inhibition assay (33P transfer), ErbB4; conditions: read-out: ErbB4-1
T16 construct: Kinases are expressed as either kinase domains or full length constructs; made in house

T9 sequence (P11362 22-822, species assumed): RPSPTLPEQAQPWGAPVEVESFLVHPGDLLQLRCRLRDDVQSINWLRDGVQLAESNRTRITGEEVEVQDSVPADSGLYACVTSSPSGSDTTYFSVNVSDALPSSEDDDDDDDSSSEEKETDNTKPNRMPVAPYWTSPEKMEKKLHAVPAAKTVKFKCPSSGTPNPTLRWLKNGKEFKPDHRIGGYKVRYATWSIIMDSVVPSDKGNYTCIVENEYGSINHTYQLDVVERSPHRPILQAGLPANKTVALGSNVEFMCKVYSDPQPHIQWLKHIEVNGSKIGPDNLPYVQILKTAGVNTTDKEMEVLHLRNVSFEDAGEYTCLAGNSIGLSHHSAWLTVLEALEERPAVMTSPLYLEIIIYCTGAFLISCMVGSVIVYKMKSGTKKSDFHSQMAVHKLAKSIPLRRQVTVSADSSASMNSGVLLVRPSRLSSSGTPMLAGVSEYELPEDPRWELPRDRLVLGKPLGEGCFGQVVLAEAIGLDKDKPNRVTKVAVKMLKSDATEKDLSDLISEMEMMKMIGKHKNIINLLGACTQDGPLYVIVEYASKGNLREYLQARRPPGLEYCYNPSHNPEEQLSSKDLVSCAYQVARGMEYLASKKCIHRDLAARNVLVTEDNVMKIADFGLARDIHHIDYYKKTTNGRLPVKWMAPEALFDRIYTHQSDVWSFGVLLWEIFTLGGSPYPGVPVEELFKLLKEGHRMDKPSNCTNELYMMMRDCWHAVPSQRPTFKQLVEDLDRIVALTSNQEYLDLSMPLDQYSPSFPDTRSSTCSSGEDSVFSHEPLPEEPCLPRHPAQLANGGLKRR
T15 sequence (P06241 whole entry, species assumed, the tested form may be a part): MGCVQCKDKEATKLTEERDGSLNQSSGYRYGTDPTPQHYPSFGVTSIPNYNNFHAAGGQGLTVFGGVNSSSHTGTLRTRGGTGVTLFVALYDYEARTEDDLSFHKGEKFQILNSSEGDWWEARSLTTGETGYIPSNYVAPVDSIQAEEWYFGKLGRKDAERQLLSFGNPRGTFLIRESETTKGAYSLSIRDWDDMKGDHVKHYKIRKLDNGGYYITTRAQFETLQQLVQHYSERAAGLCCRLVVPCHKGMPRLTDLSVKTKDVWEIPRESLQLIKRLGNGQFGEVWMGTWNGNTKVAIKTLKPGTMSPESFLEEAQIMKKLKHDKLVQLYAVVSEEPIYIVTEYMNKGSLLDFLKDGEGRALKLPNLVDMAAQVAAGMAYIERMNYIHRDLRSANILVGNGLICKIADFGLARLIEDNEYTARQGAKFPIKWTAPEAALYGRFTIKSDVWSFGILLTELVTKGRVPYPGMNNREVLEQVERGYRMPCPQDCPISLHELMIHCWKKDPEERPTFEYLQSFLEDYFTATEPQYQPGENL
T10 sequence (P17948 27-1338, species assumed): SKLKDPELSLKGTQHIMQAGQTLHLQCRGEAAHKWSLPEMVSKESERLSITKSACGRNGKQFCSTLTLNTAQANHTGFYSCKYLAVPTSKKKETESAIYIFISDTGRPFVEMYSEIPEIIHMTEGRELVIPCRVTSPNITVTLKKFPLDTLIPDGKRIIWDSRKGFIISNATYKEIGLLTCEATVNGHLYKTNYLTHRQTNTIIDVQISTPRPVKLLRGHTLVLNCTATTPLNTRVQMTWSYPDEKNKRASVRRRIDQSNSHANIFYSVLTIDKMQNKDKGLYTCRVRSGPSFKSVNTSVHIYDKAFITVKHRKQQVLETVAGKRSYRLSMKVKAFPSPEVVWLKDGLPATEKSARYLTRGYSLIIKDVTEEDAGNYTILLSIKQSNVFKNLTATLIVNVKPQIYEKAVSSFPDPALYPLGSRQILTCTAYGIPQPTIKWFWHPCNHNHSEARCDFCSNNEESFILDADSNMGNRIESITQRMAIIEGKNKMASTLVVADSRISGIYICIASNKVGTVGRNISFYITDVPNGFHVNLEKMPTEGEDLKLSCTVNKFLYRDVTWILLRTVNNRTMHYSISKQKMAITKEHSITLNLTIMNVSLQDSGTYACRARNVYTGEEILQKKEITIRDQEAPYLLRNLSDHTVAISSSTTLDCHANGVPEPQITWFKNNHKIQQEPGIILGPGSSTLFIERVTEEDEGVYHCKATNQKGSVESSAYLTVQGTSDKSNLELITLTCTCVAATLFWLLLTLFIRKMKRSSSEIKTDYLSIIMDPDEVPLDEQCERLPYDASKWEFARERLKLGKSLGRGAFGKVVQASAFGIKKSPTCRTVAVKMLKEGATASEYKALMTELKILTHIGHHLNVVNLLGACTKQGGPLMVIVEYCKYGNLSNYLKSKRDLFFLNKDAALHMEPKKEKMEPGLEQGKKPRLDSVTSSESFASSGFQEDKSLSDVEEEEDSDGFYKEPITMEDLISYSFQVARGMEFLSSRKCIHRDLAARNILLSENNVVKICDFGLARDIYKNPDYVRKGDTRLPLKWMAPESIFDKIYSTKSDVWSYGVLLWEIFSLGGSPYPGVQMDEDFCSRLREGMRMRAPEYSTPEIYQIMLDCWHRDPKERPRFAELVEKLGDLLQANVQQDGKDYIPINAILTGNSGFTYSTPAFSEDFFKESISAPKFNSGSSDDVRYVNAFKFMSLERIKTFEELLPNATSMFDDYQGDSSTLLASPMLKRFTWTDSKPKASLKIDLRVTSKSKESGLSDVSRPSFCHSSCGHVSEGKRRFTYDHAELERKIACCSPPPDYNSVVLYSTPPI
T2 sequence (P09619 33-1106, species assumed): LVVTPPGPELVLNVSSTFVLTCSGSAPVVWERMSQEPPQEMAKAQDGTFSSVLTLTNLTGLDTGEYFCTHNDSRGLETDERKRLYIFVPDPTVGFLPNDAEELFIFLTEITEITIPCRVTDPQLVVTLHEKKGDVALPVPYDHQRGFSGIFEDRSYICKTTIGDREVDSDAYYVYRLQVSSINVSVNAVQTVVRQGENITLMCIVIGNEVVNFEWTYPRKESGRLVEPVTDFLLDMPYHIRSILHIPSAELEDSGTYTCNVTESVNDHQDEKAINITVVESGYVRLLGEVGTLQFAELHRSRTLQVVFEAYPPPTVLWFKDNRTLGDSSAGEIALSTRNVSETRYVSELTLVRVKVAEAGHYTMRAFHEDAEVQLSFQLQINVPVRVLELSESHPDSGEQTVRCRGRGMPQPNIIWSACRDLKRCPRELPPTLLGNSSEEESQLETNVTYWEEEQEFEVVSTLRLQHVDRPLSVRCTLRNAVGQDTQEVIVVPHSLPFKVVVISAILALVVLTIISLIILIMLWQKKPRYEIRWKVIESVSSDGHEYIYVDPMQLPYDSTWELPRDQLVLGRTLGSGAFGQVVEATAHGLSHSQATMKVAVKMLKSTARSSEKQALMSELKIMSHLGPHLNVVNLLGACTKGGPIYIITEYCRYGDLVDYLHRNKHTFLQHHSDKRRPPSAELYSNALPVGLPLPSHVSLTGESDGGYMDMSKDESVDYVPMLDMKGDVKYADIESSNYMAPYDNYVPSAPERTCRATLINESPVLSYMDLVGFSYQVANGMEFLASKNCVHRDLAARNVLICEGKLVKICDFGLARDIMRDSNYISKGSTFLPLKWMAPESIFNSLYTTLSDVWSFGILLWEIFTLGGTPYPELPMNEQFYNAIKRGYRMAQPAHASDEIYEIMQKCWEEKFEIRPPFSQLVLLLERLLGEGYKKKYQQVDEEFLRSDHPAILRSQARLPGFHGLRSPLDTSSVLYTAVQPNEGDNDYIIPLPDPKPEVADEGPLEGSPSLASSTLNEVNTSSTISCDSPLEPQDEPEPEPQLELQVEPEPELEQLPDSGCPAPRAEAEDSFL
T11 sequence (P07948 whole entry, species assumed, the tested form may be a part): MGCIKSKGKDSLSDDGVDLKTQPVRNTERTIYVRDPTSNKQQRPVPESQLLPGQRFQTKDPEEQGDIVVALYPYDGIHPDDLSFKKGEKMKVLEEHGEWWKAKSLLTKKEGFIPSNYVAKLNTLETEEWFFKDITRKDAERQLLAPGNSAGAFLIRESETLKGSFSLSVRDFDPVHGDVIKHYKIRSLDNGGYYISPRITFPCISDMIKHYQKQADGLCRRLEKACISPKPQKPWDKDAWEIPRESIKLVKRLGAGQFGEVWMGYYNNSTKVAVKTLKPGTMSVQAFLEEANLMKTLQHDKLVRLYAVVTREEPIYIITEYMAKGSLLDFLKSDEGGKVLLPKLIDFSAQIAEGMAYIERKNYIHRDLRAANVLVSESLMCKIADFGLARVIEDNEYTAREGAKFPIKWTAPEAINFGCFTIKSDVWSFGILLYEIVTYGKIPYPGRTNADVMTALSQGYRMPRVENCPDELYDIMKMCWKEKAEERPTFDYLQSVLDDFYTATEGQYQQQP
T3 sequence (P12931 whole entry, species assumed, the tested form may be a part): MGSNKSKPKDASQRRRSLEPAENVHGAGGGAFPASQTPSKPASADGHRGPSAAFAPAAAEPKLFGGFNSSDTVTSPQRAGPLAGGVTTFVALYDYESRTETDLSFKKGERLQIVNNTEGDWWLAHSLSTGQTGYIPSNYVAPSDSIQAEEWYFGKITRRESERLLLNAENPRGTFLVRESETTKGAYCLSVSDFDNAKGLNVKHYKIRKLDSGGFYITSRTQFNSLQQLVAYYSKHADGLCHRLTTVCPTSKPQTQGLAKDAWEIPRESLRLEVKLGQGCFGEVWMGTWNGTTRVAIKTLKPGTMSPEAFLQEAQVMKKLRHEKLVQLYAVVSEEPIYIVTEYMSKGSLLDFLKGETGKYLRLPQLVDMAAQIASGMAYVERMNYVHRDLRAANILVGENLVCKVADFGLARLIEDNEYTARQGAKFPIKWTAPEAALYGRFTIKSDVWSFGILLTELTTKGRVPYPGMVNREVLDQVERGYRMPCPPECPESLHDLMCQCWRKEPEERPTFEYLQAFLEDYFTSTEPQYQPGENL

Row | SMILES | IC50 (EGFR) [µM] | IC50 (PDGFRB) [µM] | IC50 (Src) [µM] | IC50 (c-Met) [µM] | IC50 (AKT) [µM] | IC50 (Tek) [µM] | IC50 (Hck-1) [µM] | IC50 (Lck) [µM] | IC50 (FGFR1) [µM] | IC50 (Flt-1) [µM] | IC50 (Lyn) [µM] | IC50 (Zap-70) [µM] | IC50 (Kdr) [µM] | IC50 (Itk) [µM] | IC50 (Fyn) [µM] | IC50 (ErbB4) [µM]
1 | COc1cc(Nc2ncnc(-n3cc(CCO)c4ccccc43)n2)cc(OC)c1OC [Compound 463] | > 10.7 | < 0.949 | 0.949 to 5.69 | > 10.7 | > 10.7 | > 10.7 | > 10.7 | > 10.7 | < 0.949 | < 0.949 | 0.949 to 5.69 | > 10.7 | < 0.949 | > 10.7 | < 0.949 | > 10.7
2 | COc1cc(Nc2ncnc(-n3c(N)nc4ccccc43)n2)cc(OC)c1OCCN1CCOCC1 [Compound 445] | > 9.14 | < 0.812 | 0.812 to 4.87 | 0.812 to 4.87 | > 9.14 | 7.11 to 9.14 | > 9.14 | < 0.812 | < 0.812 | < 0.812 | 0.812 to 4.87 | > 9.14 | < 0.812 | 0.812 to 4.87 | 0.812 to 4.87 | > 9.14
3 | COc1cc(Nc2ncnc(-n3c(NCc4cccnc4)nc4ccccc43)n2)cc(OC)c1OC [Compound 416] | > 9.29 | < 0.826 | 4.95 to 7.22 | > 9.29 | > 9.29 | > 9.29 | > 9.29 | 0.826 to 4.95 | < 0.826 | 0.826 to 4.95 | 0.826 to 4.95 | > 9.29 | < 0.826 | > 9.29 | 7.22 to 9.29 | > 9.29

Other lines, results leading:

Row | IC50 (EGFR) [µM] | IC50 (PDGFRB) [µM] | IC50 (Src) [µM] | IC50 (c-Met) [µM] | IC50 (AKT) [µM] | IC50 (Tek) [µM] | IC50 (Hck-1) [µM] | IC50 (Lck) [µM] | IC50 (FGFR1) [µM] | IC50 (Flt-1) [µM] | IC50 (Lyn) [µM] | IC50 (Zap-70) [µM] | IC50 (Kdr) [µM] | IC50 (Itk) [µM] | IC50 (Fyn) [µM] | IC50 (ErbB4) [µM] | SMILES
4 | 1.01 to 6.04 | 1.01 to 6.04 | 1.01 to 6.04 | > 11.3 | > 11.3 | > 11.3 | > 11.3 | > 11.3 | 6.04 to 8.81 | > 11.3 | < 1.01 | > 11.3 | 8.81 to 11.3 | > 11.3 | 8.81 to 11.3 | > 11.3 | COc1cc(Nc2ncnc(N[C@H](CO)c3ccccc3)n2)cc(OC)c1OC [Compound 425]
5 | > 9.29 | < 0.826 | 0.826 to 4.95 | > 9.29 | > 9.29 | > 9.29 | > 9.29 | > 9.29 | < 0.826 | 0.826 to 4.95 | 0.826 to 4.95 | > 9.29 | < 0.826 | > 9.29 | 0.826 to 4.95 | > 9.29 | COc1cc(Nc2ncnc(-n3c(NCc4ccncc4)nc4ccccc43)n2)cc(OC)c1OC [Compound 413]
